Laboratory results from article PMC7279038, “Antioxidant and Neuroprotective Effects Induced by Cannabidiol and Cannabigerol in Rat CTX-TNA2 Astrocytes and Isolated Cortexes” (International Journal of Molecular Sciences, 2020).

Tests used:
[1] = DPPH scavenging ability test; settings: mean ± S.D., n = 3
Procedure: For the 1,1-diphenyl-2-picrylhydrazyl (DPPH) radical scavenging assay, sample solution was added to 4 mL of a 0.004% methanol solution of DPPH. The sample absorbance was read at 517 nm after a 30 min incubation at room temperature in the dark. DPPH radical scavenging activity was expressed as IC50 values.

cytochrome C (Cyt C) = assay: Western blotting analysis of cytochrome C; type: cell-based, rat; settings: CTX-TNA2 challenged with H2O2, 24 h; 1000 nM CBD, 1 nM CBG
Procedure: […] The stock solutions were diluted in cell medium to the point that the concentration of DMSO in the samples was less than 0.0003%. Therefore, the addition of DMSO to the control samples was not necessary.
The western blowing analysis of Bax and Cyt C was carried out as previously reported. Specifically, CTX-TNA2 lysates (20 µg) were boiled fof 5 min in sample buffer, made of tris-HCl pH 6.8, glycerol, 2-mercaptoethanol, SDS and bromophenol blue. They were then electrophoresed and transferred to nitrocellulose membranes. […] Immunoreactive bands were identified using the ECL detection system (Euroclone, Pero, Milano, Italy) and analyzed by densitometry. Densitometric values were quantified by the CHEMIDOC XRS system and expressed as Integrated Optical Intensity using the QuantiOne 1-D analysis software (Bio-rad Laboratories, Richmond, CA, USA). […] Results are expressed as the mean ± SD.

[2] = system: isolated rat prefrontal cortex, nitrite; assay: H2O2-induced nitrite level in isolated cortexes (Griess assay); settings: hydrogen peroxide 300 µM; for inhibition of H2O2-induced increase in nitrite level: 1–1000 nM
Procedure: Sprague–Dawley rats (200–250 g) were sacrificed by CO2 inhalation and isolated prefrontal cortex specimens were immediately explanted and exposed to 300 µM H2O2 and different concentrations of CBD (1–1000 nM) and CBG (1–1000 nM) for one hour, at 37 °C. The nitrite concentration in the resuspension buffer was determined by colorimetric Griess assay. Specifically, cortex specimens were homogenized for 2 min with Potter–Elvehjem homogenizer in 2 mL DMEM buffer. The homogenate was centrifuged at 4500 g for 10 min and nitrite production was determined in the supernatant fraction by mixing 50 µL of the assay buffer with 50 µL of Griess reagent (1.5% sulfanilamide in 1M HCl plus 0.15% N-(1-naphthyl) ethylenediamine dihydrochloride in distilled water, v/v). After 10 min incubation at room temperature, the absorbance at 540 nm was determined and nitrite concentrations were calculated from a sodium nitrite standard curve. All measurements were performed in triplicate.

syntaxin 1b (Stx 1b) = assay: Untargeted proteomic analysis of cortexes, Stx 1b; set-up: species or system rat; settings: CBD 1000 nM, CBG 1 nM
Procedure: Sprague–Dawley rats (200–250 g) were sacrificed by CO2 inhalation (Italian Health Ministry authorization N. F4738.N.XTQ, delivered on 11th November 2018) and isolated prefrontal cortex specimens were immediately explanted and incubated in thermostatic shaking bath at 37 °C for 1 h (incubation period), in Krebs–Ringer buffer at the following K^+ concentrations:
Cortexes were stimulated with CBD (1000 nM) and CBD (1 nM). Afterwards, specimens were homogenized in perchloric acid solution (0.05 M) for the extraction and quantification of nitrites, via the aforementioned colorimetric Griess assay, and serotonin (5-HT), 5-hydroxyindoleacetic (5HIIA),3-hydroxykinurenine (3-HK) and kinurenic acid (KA) (ng/mg wet tissue) via high performance liquid chromatography analysis. Additionally, an untargeted proteomic analysis was carried out on the cortex homogenate. The analytical protocols for 5-HT, 5HIIA, 3-HK, KA and protein level determinations are described below. […]
After protein quantification, a volume corresponding to 50 μg of proteins was loaded onto a Nanosep 10-kDa-cutoff filter (Pall Corporation, Michigan, USA) and digested according to the protocol we routinely use in our laboratory, adapted from Distler et al. Briefly, the sample was washed twice with 200 μL urea buffer (8M urea, 100 mM Tris pH 8.5 in milliQ water) to remove the detergents present in the lysis buffer. […]

| SMILES | IC50 [1] [µM] | Cyt C expression (cytochrome C (Cyt C)) | inhibition of H2O2-induced increase in nitrite level [2] | effect on K+ 60 mM-induced reduction in Stx 1b level (syntaxin 1b (Stx 1b)) | concentration of maximal inhibition of nitrite production ([2]; tested 1–1000 nM) [nM] |
| --- | --- | --- | --- | --- | --- |
| C=C(C)[C@@H]1CCC(C)=C[C@H]1c1c(O)cc(CCCCC)cc1O [CBD, Cannabidiol] | 1870 ± 40 | decrease the Cyt C levels in comparison to H2O2 sample | inhibit such an increase at all the tested concentrations | blocking the downregulation | – |
| CCCCCc1cc(O)c(C/C=C(\C)CCC=C(C)C)c(O)c1 [CBG, cannabigerol] | 1950 ± 10 | effect on Bax only | significant at the two lowest tested concentrations only | completely ineffective | 1 |
